“Also recorded” adds a separate entry of the source.
Columns and labels:
[1] = system: Thermosequenase; test: Primer extension reactions: incorporation of fluorescently labelled deoxynucleotide triphosphates by DNA polymerase; assay type: biochemical; conditions: number of consecutive fluor-labelled nucleotides added; templates with 2, 3 or 8 consecutive A residues; 48° C. for 45 minutes
[2] = molecular target: T1, subtilisin (Subtilopeptidase A, type VIII) (Bacillus licheniformis, UniProt P00780); test: Protease mediated cleavage of FamHex-GGL-β-A-2′dU, HPLC and MALDI-TOF analysis; assay type: biochemical; conditions: 2 hours at 37° C., pH 7.5
T1 construct: purchased Sigma Chemical Co. UK
T1 sequence (P00780 106-379): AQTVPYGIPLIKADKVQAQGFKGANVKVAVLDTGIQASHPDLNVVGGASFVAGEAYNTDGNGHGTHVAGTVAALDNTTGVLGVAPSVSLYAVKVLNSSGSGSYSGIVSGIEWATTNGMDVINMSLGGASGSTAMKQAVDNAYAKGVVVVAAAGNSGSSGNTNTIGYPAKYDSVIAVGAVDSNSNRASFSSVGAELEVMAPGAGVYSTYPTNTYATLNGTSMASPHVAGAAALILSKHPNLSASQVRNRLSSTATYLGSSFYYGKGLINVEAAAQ
Description: A 10 μg aliquot of the substrate FAMHEX-GGL-β-A 2′dU (compound 6 above) was dissolved in 0.1M sodium acetate buffer pH 7.5 containing 5 mM calcium acetate. The substrate solution was digested at 37° C. for 2 hours in 200 μl in the presence of 0.5 units of subtilisin (Subtilopeptidase A, type VIII, Sigma Chemical Co. UK).
The resulting digest was ultrafiltered using a Microcon YM10 Concentrator (Milipore Ltd., UK) and the filtrate analysed by HPLC (Gilson 170, Gilson, UK) on a Sephasil™ peptide C-18 column (Amersham Biosicences, UK). […] These eluted at 29.8 (I), 32.6 (II), 26.7 (III) and 37.1 (IV) minutes on an acetonitrile gradient of 50% to 70%. The peaks were collected and analysed by MALDI-TOF mass spectrometry (Bruker Biflex II, Brucker, Germany). A matrix of 10 mg/ml 3-hydroxycinnamic acid in acetonitrile and 1% TFA was used for the analysis. The mass spectrometer was calibrated with 100 mM Bradykinin 1-7 (Sigma Chemical Co., UK).

Row | predominant product with templates 3, 4 and 5 [1] | Substance | cleavage of the linker by subtilisin [2] | site of hydrolysis by subtilisin ([2]; molecular ion of 717 in peak II)
1 | One addition | Alexa Fluor 568-5-dUTP [Alexa 568-5-dUTP] |  | 
2 |  | 5-N-[N-(6-Fluorescein-5(and 6)carboxamidohexanoyl)-Gly-Gly-Leu-β-alanyl]-propargylamino-2′-deoxyuridine [Compound 6] | consistent with the cleavage of the linker by the subtilisin enzyme; also recorded: readily digested by subtilisin | at the peptide bond on the carboxyl side of the leucine residue; also recorded: cleaves at the leucine residue
3 | One addition | Alexa Fluor 594-5-dUTP [Alexa 594-5-dUTP] |  | 
4 | One addition, with minor two additions | Cy3 dUTP |  | 
5 | One addition, with minor two additions | Cy5 dUTP |  | 

Row | Substance | predominant product with templates 3, 4 and 5 [1] | cleavage of the linker by subtilisin [2] | site of hydrolysis by subtilisin ([2]; molecular ion of 717 in peak II)
6 | Texas Red-5-dUTP | One addition, with very slight two additions |  | 
7 | Lissamine-5-dUTP | One addition, with very slight two additions |  | 

Source: patent publication US20050164182A1, “Nucleotide analogues” (priority 2001, published 2005)
